Data published in patent publication US20260109707A1, “HETEROBIFUNCTIONAL COMPOUNDS AND METHODS OF TREATING DISEASE” (Halda Therapeutics OpCo. Inc., priority 2022, published 2026).

Columns and labels:
[1] = target: T1, BRD4-BD1 (Homo sapiens, UniProt O60885); assay: bromoKdELECT assay for binding affinity to BRD4-BD1; settings: binding to BRD4-BD1, Table 4
T1 construct: made in house; host or cells: T7 phage grown in an E. coli host derived from the BL21 strain
Method: Compounds were tested using a bromoKdELECT assay. T7 phage strains displaying bromodomains were grown in parallel in 24-well blocks in an E. coli host derived from the BL21 strain. E. coli were grown to log-phase and infected with T7 phage from a frozen stock (multiplicity of infection=0.4) and incubated with shaking at 32° C. until lysis (90-150 minutes). The lysates were centrifuged (5,000×g) and filtered (0.2 μm) to remove cell debris. Streptavidin-coated magnetic beads were treated with biotinylated small molecule or acetylated peptide ligands for 30 minutes at room temperature to generate affinity resins for bromodomain assays. The liganded beads were blocked with excess biotin and washed with blocking buffer (SeaBlock (Pierce), 1% BSA, 0.05% Tween 20, 1 mM DTT) to remove unbound ligand and to reduce nonspecific phage binding. Binding reactions were assembled by combining bromodomains, liganded affinity beads, and test compounds in 1× binding buffer (17% SeaBlock, 0.33×PBS, 0.04% Tween 20, 0.02% BSA, 0.004% Sodium azide, 7.4 mM DTT). Test compounds were prepared as 1000× stocks in 100% DMSO. Kds were determined using an 11-point 3-fold compound dilution series with one DMSO control point. All compounds for Kd measurements are distributed by acoustic transfer (non-contact dispensing) in 100% DMSO. The compounds were then diluted directly into the assays such that the final concentration of DMSO was 0.09%. All reactions performed in polypropylene 384-well plates. Each was a final volume of 0.02 ml. The assay plates were incubated at room temperature with shaking for 1 hour and the affinity beads were washed with wash buffer (1×PBS, 0.05% Tween 20). The beads were then resuspended in elution buffer (1×PBS, 0.05% Tween […] non-biotinylated affinity ligand) and incubated at room temperature with shaking for 30 minutes. The bromodomain concentration in the eluates was measured by qPCR.

[2] = target: T2, progesterone receptor (Homo sapiens, UniProt P06401); assay: PR Human Progesterone NHR Binding (Agonist Radioligand) Assay; settings: binding to the progesterone receptor, cytosolic fractions of T47D cells, Table 12
T2 sequence (P06401 679-933 limits assumed): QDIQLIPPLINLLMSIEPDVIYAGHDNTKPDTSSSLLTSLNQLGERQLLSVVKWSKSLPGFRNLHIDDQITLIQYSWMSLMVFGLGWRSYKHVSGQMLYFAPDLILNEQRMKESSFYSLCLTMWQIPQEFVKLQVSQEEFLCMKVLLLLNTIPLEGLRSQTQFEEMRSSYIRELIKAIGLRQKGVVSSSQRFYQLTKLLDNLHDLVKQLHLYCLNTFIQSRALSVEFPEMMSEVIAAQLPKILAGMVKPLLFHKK
Method: Compounds were tested using the PR Human Progesterone NHR Binding (Agonist Radioligand) Assay, Cerep at Eurofins Discovery using a modified version of the protocol from Sarup et al. (Cancer Res 1988; 48:5071-5078). Briefly, cytosolic fractions of T47D cells were incubated with 0.5 nM [^3H]progesterone for 1 hour at 4° C. in the absence or presence of the test compound. Nonspecific binding was determined in the presence of 1 μM promegestone. Reactions were subjected to scintillation counting. Results are expressed as a percent inhibition of the control radioligand specific binding.

[3] = target: T3, progesterone receptor ligand binding domain (LBD) (Homo sapiens, UniProt P06401); assay: FP assay for binding affinity to progesterone receptor (PolarScreen Progesterone Receptor Competitor Assay Kit); settings: fluorescence polarization, GST-tagged PR LBD, Table 13
T3 construct: GST-tagged PR LBD, Fluormone tracer, and compound were mixed and incubated for 2 hours; purchased Life Technologies A15905 or a15906
T3 sequence (P06401 679-913 limits assumed): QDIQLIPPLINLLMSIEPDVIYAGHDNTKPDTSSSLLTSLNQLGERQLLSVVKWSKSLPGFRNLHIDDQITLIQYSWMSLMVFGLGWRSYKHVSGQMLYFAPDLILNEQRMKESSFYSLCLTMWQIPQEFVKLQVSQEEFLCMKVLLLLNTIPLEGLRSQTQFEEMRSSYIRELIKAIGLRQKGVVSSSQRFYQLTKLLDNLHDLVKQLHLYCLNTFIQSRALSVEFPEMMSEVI
Method: Compounds were tested using the PolarScreen™ Progesterone Receptor Competitor Assay Kit (Life Technologies Cat #A15905 or a15906), as per the manufacturer's instructions. Briefly, GST-tagged PR LBD, Fluormone tracer, and compound were mixed and incubated for 2 hours at room temperature in the dark. Following incubation, the plates were spun at 3000×g for 30 seconds, then sealed with an optical adhesive cover, and fluorescence polarization was measured using appropriate excitation and emission filters with an EnVision Plate Reader (Perkin Elmer). Compound concentration vs. mP value were plotted in Prism (GraphPad). A four-parameter non-linear regression curve fit was applied to dose-response data to determine the half-maximal inhibitory concentration (IC50) for each test compound.

Compound | Kd [1] [nM] | Kd [2] [nM] | IC50 [3] [nM]
CCNC(=O)C[C@@H]1N=C(c2ccc(N3CC4(C3)CN(c3ccc(C(=O)N[C@H]5CC[C@H](Oc6ccc(C#N)c(Cl)c6)CC5)nn3)C4)cc2)c2c(sc(C)c2C)-n2c(C)nnc21 [I-24] | 50 to 500 |  | 
CCNC(=O)C[C@@H]1N=C(c2ccc(N3CCC(OC4CCN(c5ccc(C(=O)N[C@H]6CC[C@H](Oc7ccc(C#N)c(Cl)c7)CC6)nn5)CC4)CC3)cc2)c2c(sc(C)c2C)-n2c(C)nnc21 [I-44] | 50 to 500 | 50 to 500 | 
CCNC(=O)C[C@@H]1N=C(c2ccc(CC3CCN(c4ccc(C(=O)N[C@H]5CC[C@H](Oc6ccc(C#N)c(Cl)c6)CC5)nn4)CC3)cc2)c2c(sc(C)c2C)-n2c(C)nnc21 [I-20] | 50 to 500 |  | 
CCNC(=O)C[C@@H]1N=C(c2ccc(CCCOC3CCN(c4ccc(C(=O)N[C@H]5CC[C@H](Oc6ccc(C#N)c(Cl)c6)CC5)nn4)CC3)cc2)c2c(sc(C)c2C)-n2c(C)nnc21 [I-17] | 50 to 500 |  | 
CCNC(=O)C[C@@H]1N=C(c2ccc(OCC3CN(c4ccc(C(=O)N[C@H]5CC[C@H](Oc6ccc(C#N)c(Cl)c6)CC5)nn4)C3)cc2)c2c(sc(C)c2C)-n2c(C)nnc21 [I-29] |  | 50 to 500 | 
Cc1sc2c(c1C)C(c1ccc(Cl)cc1)=N[C@@H](CC(=O)NCCOC1CCN(c3ccc(C(=O)N[C@H]4CC[C@H](Oc5ccc(C#N)c(Cl)c5)CC4)nn3)CC1)c1nnc(C)n1-2 [I-1, N-[4-(3-chloro-4-cyano-phenoxy)cyclohexyl]-6-[4-[2-[[2-[(9S)-7-(4-chlorophenyl)-4,5,13-trimethyl-3-thia-1,8,11,12-tetrazatricyclo[8.3.0.0^2,6]trideca-2(6),4,7,10,12-pentaen-9-yl]acetyl]amino]ethoxy]-1-piperidyl]pyridazine-3-carboxamide] | 50 to 500 |  | 
Cc1sc2c(c1C)C(c1ccc(Cl)cc1)=N[C@@H](CC(=O)NCCOCCOCCOC1CCN(c3ccc(C(=O)N[C@H]4CC[C@H](Oc5ccc(C#N)c(Cl)c5)CC4)nn3)CC1)c1nnc(C)n1-2 [I-2, N-[4-(3-chloro-4-cyano-phenoxy)cyclohexyl]-6-[4-[2-[2-[2-[[2-[(9S)-7-(4-chlorophenyl)-4,5,13-trimethyl-3-thia-1,8,11,12-tetrazatricyclo[8.3.0.0^2,6]trideca-2(6),4,7,10,12-pentaen-9-yl]acetyl]amino]ethoxy]ethoxy]ethoxy]-1-piperidyl]pyridazine-3-carboxamide] |  | 50 to 500 | 50 to 500
